Results: article PMC11173765 (Molecules, 2024)
“And” between values parts separate entries of the source, which are not always exact repeats. Identical values can stand only once. Like-named read-outs stand apart in the source and are kept apart here.

Experiments:
[1] = target: T1, S2R (Rattus norvegicus, UniProt Q5U3Y7); experiment: S2R radioligand binding assay ([3H]-DTG with (+)-pentazocine mask, rat liver homogenates); details: for Ki: [3H]-DTG 2 nM, (+)-pentazocine 5 μM mask, rat liver homogenates, mean ± SEM; for S1R/S2R: selectivity ratio Ki S1R / Ki S2R
T1 construct: liver homogenates (250 μg/sample) from male Sprague Dawley rats; from tissue; host or cells: liver homogenate of male Sprague Dawley rats
T1 sequence (Q5U3Y7 1-176): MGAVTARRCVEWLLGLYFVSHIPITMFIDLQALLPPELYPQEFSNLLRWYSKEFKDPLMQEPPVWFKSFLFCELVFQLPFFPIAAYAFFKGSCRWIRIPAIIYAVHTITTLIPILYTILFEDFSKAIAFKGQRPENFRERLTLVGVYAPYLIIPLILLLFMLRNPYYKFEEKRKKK
Experimental: (§1) The S1R and S2R receptor affinities of the test compounds were evaluated in competition tests by radiometric assays.
(§2) Liver homogenates were prepared from Sprague Dawley rats (ENVIGO RMS S.R.L., Udine, Italy) for both S1R and S2R receptor binding assays. […] An Ultima Gold MV Scintillation cocktail was sourced from PerkinElmer (Milan, Italy). Other materials were obtained from Merck Life Science S.r.l. (Milan, Italy). For each compound, a10 mM DMSO stock solution was obtained. From these, diluted test concentrations ranging from 10^−5 M to 10^−11 M wereprepared using the respective assay buffer. Both assays involve the use of a tris buffer (50 mM, pH 8) and liver homogenates (250 μg/sample) from male Sprague Dawley rats. […] The final volume was 0.5 mL [54]. A millipore filter apparatus was employed to separate bound and free radioligands via filtration under conditions of reduced pressure through Whatman GF 6 glass fiber filters. Each filter paper was washed three times with 2 mL of ice-cold tris buffer (50 mM for S1R, 10 mM for S2R; pH 8.0), dried at room temperature, and incubated overnight with 2 mL of Ultima Gold MV Scintillation cocktail in pony vials. Bound radioactivity was determined using a liquid scintillation counter Beckman LS 6500 (Beckman Coulter Diagnostic, Brea, CA, USA. […]

[2] = target: T2, S1R (Rattus norvegicus, UniProt Q9R0C9); experiment: S1R radioligand binding assay ([3H]-pentazocine, rat liver homogenates); details: for SR subtype preference: in words, from S1R and S2R binding affinities; for S2R/S1R: selectivity ratio Ki S2R / Ki S1R
T2 construct: liver homogenates (250 μg/sample) from male Sprague Dawley rats; from tissue; host or cells: liver homogenate of male Sprague Dawley rats
Experimental: as §1, §2

[3] = tested on: HUH-7; experiment: Cytotoxicity, resazurin viability assay in HUH-7 cells; format: cell-based; details: Homo sapiens, 48 hrs treatment, mean ± SEM
Experimental: (§3) Cytotoxic potency was measured using a resazurin assay (see Supplementary Materials). Cells were treated with increasing concentrations of each compound for 48 hours before the cell viability was assessed (Supplementary Materials).
(§4) Dulbecco’s modified Eagle medium (DMEM; Gibco, Life Technologies, Grand Island, NY, USA), supplemented with 10% (v/v) of fetal bovine serum (FBS) and Antibiotic Antimycotic Solution (100 U penicillin, 100 μg/mL streptomycin and 0.25 μg/mL amphotericin B; Sigma-Aldrich, St. Louis, MO, USA), was used to culture the human cell lines SH-SY5Y [55] (neuroblastoma, ATCC, CRL-2266) and HUH-7 [56] (hepatocarcinoma, Japanese Cancer Research Resources Bank, National Institutes of Biomedical Innovation, Health and Nutrition, NIBIOHN, JCRB0403).
(§5) Cell viability was evaluated using resazurin (SERVA Electrophoresis GmbH, Heidelberg, Germany) as previously described.
(§6) Briefly, a resazurin stock solution (440 μM, 10× in phosphate-buffered saline) was diluted in a culture medium to prepare a 44 μM working solution. Cells (5 × 10^3) were seeded in 96-well plates, incubated with 100µl of resazurin working solution, and fluorescence was measured after 1, 2, and 3 hrs. The background fluorescence of killed cells was subtracted, and viability was calculated relative to control cells treated with DMSO solvent (1%). The fluorescence was measured using an Envision 2104 Multi-label Microplate Reader (Perkin Elmer, Boston, MA, USA) and by setting the excitation wavelength at λ = 530 nm and emission wavelength at λ = 590 nm. Measurements were performed at a time of 0 and after 1 hour of incubation. Cytotoxicity was calculated as 100% minus the percentage of viability.
(§7) Statistical analysis was carried out with GraphPad Prism® 6.0 software. An unpaired t-test was used to compare treated and control cells, with p < 0.05 considered statistically significant. The half-maximal inhibitory concentration (IC50) values for cytotoxicity were determined by analyzing dose-response curves using GraphPad Prism software.

[4] = tested on: SH-SY5Y; experiment: Cytotoxicity, resazurin viability assay in SH-SY5Y cells; format: cell-based; details: Homo sapiens, 48 hrs treatment, mean ± SEM
Experimental: as §3, §4, §5, §6, §7

[5] = target: S1R; details: read-out: Ki S1R; siramesine literature value; cited from earlier work
[6] = target: S2R; details: read-out: Ki S2R; siramesine literature value; cited from earlier work
[7] = [3H]-pentazocine 2 nM, rat liver homogenates, mean ± SEM, read-out: Ki S1R

T2 sequence (Q9R0C9 whole entry): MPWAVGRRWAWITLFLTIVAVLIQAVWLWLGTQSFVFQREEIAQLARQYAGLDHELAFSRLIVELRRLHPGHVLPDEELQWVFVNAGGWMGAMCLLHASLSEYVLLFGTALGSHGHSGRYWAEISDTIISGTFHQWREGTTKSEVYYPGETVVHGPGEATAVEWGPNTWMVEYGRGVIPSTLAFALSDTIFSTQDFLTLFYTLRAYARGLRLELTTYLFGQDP

Structure (SMILES) | Ki ([1]; read-out: Ki S2R) [nM] | Ki [2, 7] [nM] | SR subtype preference [2] | S2R/S1R [2] | S1R/S2R [1] | melting point [°C] | IC50 [3] [µM] | IC50 [4] [µM] | Ki ([1]; Ki S2R) | Ki [2] [nM] | Ki [5] [nM] | Ki [6] [nM]
O=C(CCCN1CCCN(Cc2ccccc2)CC1)c1ccc(F)cc1 [4a, 4-(4-Benzyl-1,4-diazepan-1-yl)-1-(4-fluorophenyl)butan-1-one] | 210 ± 21.4 | 21.6 ± 3.44 | preference for the S1R subtype | 10 |  |  |  |  |  |  |  | 
O=C(CCCN1CCc2ccccc2C1)c1ccc(F)cc1 [4b, 4-(3,4-Dihydroisoquinolin-2(1H)-yl)-1-(4-fluorophenyl)butan-1-one] | 124 ± 16.3 | 44.5 ± 7.39 | preference for the S1R subtype | 2.8 | 0.35 | 45 to 47 |  |  |  |  |  | 
COc1ccc(CN(C)CCCC(=O)c2ccc(F)cc2)cc1OC [4c, 4-((3,4-Dimethoxybenzyl)(methyl)-amino)-1-(4-fluorophenyl)butan-1-one] | 148 ± 10.3 | 301 ± 74.7 | preference for S2R | 0.5 | 2.0 |  |  |  |  |  |  | 
O=C(CCCN1CCN(C2CCCCC2)CC1)c1ccc(F)cc1 [4d, 4-(4-Cyclohexylpiperazin-1-yl)-1-(4-fluorophenyl)butan-1-one] | 13.2 ± 2.78 | 18.8 ± 2.91 | dual SR affinity | 0.7 | 1.4 | 198 to 200 | 163 ± 18 |  |  |  |  | 
COc1cc2c(cc1OC)CN(CCCC(=O)c1ccc(F)cc1)CC2 [4e, 4-(6,7-Dimetoxy-3,4-dihydroisoquinolin-2(1H)-yl)-1-(4-fluorophenyl)butan-1-one] | 6.93 ± 0.76 | 1660 ± 118 | preference for S2R | 0.004 | 241 |  | 40 ± 5 | 120 ± 13 |  |  |  | 
O=C(CCCN1CCN(c2ccc(F)cc2)CC1)c1ccc(F)cc1 [4f, 1-(4-Fluorophenyl)-4-(4-(4-fluorophenyl)piperazin-1-yl)butan-1-one] | 16.4 ± 3.17 | 70.2 ± 23.2 | preference for S2R | 0.23 | 4.3 | 94 to 95 |  |  |  |  |  | 
O=C(CCCN1CCC2(CC1)OCc1ccccc12)c1ccc(F)cc1 [4g, 1-(4-Fluorophenyl)-4-(3H-spiro[isobenzofuran-1,4′-piperidin]-1′-yl)butan-1-one] |  |  | dual SR affinity | 1.46 | 0.7 | 88 to 90 | 16 ± 2 | 57 ± 6 | 9.2 nM and 9.23 nM | 6.3 ± 1.4 |  | 
Cc1ccc(CN(C)CCCC(=O)c2ccc(F)cc2)c(C)c1 [4h, 4-((2,4-Dimethylbenzyl)(methyl)amino)-1-(4-fluorophenyl)butan-1-one] | 27.7 ± 3.03 | 59.7 ± 7.6 | preference for S2R | 0.46 | 2.1 |  |  |  |  |  |  | 
O=C(CCCN1CCC(c2ccncc2)CC1)c1ccc(F)cc1 [4i, 1-(4-Fluorophenyl)-4-(4-(pyridin-4-yl)piperidin-1-yl)butan-1-one] | 28.3 ± 3.33 | 13.9 ± 3.11 | preference for the S1R subtype | 2.03 | 0.5 | 102 to 104 |  |  |  |  |  | 
COc1ccc(CC2CCN(CCCC(=O)c3ccc(F)cc3)CC2)cc1OC [4j, 4-(4-(3,4-Dimetoxybenzyl)piperidin-1-yl)-1-(4-fluorophenyl)butan-1-one] | 153 ± 30.3 | 6.1 ± 0.58 | preference for the S1R subtype | 25 | 0.04 |  | 37 ± 6 | 58 ± 7 |  |  |  | 
Fc1ccc(-n2cc(CCCCN3CCC4(CC3)OCc3ccccc34)c3ccccc32)cc1 [SRM, siramesine, reference compound] |  |  |  | 1.2 | 0.8 |  | 2 ± 0.25 | 5 ± 1 |  |  | 10.5 ± 2.6 | 12.6 ± 0.1
